From patent publication US9056865B2, “Pyridine-2-derivatives as smoothened receptor modulators” (Pfizer Inc., priority 2010, dated 2015)
Read-outs that look alike come from different tables or passages of the source.

Key:
Gli-Luc/MEF cells = experiment: Gli-Luc/MEF assay; assay type: cell-based, mouse; conditions: Mus musculus, MEF; Shh-stimulated luciferase, 48 hours
Method in brief: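 Shh-stimulated luciferase readout (Bright-Glo) after 48 h, 37 °C, 5% CO2, used to derive IC50 of inhibition. Gli-Luc transgenic mouse MEFs received test compounds at final […] in 3-fold dilutions, with recombinant mouse Shh added immediately at final 2 μg/mL.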

[1] = Assessment of brain penetration in rats; assay type: in vivo; conditions: rat
Procedure: Assessment of Brain Penetration of A-116 in Rats
An in vivo study in rats was conducted to assess the extent of brain penetration of A-116. In this study, approximately 10-week-old (250 grams body weight) Wistar rats were dosed once with 10 mg/kg of A-116 subcutaneously. Three rats per group were euthanized 1 hour, 4 hours, and 7 hours post dose. The plasma, the whole brain, and the cerebral spinal fluid (CSF) were collected to determine the tissue concentrations using HPLC-MS/MS. At 1 hour, 4 hours and 7 hours, the respective brain concentrations were 201±52 ng/g, 224±231 ng/g, and 28 ng/g of tissue. The total plasma concentrations were 2240±296 ng/mL, 2220±1780 ng/mL, and 287±75 ng/mL at 1 hour, 4 hours and 7 hours, respectively. To calculate the unbound plasma concentrations, the total plasma concentrations were multiplied by 0.067, a previously determined unbound fraction of rat plasma protein binding. The resulting unbound plasma concentrations were 150±20 ng/mL (1 hour), 149±119 ng/mL (4 hours), and 19.2±5.0 ng/mL (7 hours). The respective CSF concentrations were 64.4±12.0 ng/mL, 72.1±71.9 ng/mL, and 3.9±2.3 ng/mL at 1 hour, 4 hours, and 7 hours post dose. […] To determine the extent of brain penetration, a ratio of the CSF concentration to the unbound plasma concentration was calculated. At 1 hour, 4 hours, and 7 hours, the ratios were 0.43±0.03, 0.44±0.1, and 0.19±0.06, respectively.

P-glycoprotein = P-glycoprotein (Homo sapiens (Human), UniProt P08183); experiment: P-glycoprotein substrate status; assay type: in vitro ADME
Chain of P-glycoprotein (P08183 whole entry): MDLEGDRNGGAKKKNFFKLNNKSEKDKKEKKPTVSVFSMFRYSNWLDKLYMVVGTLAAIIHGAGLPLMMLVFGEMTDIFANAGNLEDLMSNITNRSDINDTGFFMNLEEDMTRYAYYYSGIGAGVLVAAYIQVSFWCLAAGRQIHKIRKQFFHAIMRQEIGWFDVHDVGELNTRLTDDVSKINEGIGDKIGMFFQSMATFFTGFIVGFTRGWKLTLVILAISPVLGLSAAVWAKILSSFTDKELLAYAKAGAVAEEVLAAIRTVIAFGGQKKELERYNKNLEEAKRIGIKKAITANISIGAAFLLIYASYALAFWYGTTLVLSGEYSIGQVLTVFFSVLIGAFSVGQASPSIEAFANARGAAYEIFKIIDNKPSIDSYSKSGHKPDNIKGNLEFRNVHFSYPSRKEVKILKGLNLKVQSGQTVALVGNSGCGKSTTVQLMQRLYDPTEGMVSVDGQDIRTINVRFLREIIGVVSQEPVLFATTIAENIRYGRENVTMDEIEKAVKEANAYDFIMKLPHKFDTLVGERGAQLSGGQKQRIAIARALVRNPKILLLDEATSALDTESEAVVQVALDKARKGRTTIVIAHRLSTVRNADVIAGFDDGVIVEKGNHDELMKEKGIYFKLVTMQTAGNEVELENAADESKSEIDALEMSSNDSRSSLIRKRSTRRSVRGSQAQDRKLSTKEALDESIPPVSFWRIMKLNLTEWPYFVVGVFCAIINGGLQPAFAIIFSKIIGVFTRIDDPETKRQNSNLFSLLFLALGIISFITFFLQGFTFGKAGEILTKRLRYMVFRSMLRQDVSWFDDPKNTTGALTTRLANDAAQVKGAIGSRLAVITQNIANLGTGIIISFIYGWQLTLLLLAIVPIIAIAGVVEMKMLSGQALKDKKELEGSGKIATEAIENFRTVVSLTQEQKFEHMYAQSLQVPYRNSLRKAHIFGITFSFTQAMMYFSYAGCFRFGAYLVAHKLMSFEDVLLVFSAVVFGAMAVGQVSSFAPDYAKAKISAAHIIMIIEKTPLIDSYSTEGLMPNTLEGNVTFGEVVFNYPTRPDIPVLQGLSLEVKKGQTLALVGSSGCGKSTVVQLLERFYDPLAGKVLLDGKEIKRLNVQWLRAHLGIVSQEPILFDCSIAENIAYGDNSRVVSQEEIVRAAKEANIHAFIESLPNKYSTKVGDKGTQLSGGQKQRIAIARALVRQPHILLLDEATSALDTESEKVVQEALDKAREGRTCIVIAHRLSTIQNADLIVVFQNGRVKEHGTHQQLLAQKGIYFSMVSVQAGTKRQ

SMILES: Cc1cnc(-c2cc(N3CCN(C(=O)CCS(C)(=O)=O)CC3)ncc2Cl)c(C)c1 [Example A-116, 5′-chloro-3,5-dimethyl-2′-{4-[3-(methylsulfonyl)propanoyl]piperazin-1-yl}-2,4′-bipyridine]
- IC50 (Gli-Luc/MEF cells): 2.76 nM
- Kp at 1 h ([1]; Wistar, CSF / unbound plasma, subcutaneous, 10 mg/kg, 1 hour, read-out: ratio of the CSF concentration to the unbound plasma concentration): 0.43 ± 0.03
- Kp at 4 h ([1]; Wistar, CSF / unbound plasma, subcutaneous, 10 mg/kg, 4 hours, read-out: ratio of the CSF concentration to the unbound plasma concentration): 0.44 ± 0.1
- Kp at 7 h ([1]; Wistar, CSF / unbound plasma, subcutaneous, 10 mg/kg, 7 hours, read-out: ratio of the CSF concentration to the unbound plasma concentration): 0.19 ± 0.06
- Kp ([1]; Wistar, CSF / unbound plasma, subcutaneous, 10 mg/kg, rats, within 4 hours post dose, read-out: unbound compound in the plasma able to cross the blood brain barrier): ~0.4
- concentration at 1 h ([1]; Wistar, subcutaneous, 10 mg/kg, total plasma concentration multiplied by 0.067, 1 hour, read-out: unbound plasma concentration): 150 ± 20 ng/mL
- concentration at 4 h ([1]; Wistar, subcutaneous, 10 mg/kg, total plasma concentration multiplied by 0.067, 4 hours, read-out: unbound plasma concentration): 149 ± 119 ng/mL
- concentration at 7 h ([1]; Wistar, subcutaneous, 10 mg/kg, total plasma concentration multiplied by 0.067, 7 hours, read-out: unbound plasma concentration): 19.2 ± 5 ng/mL
- concentration at 1 h ([1]; CSF, sc, Wistar rats, 10 mg/kg subcutaneously, 1 hour, read-out: CSF concentration): 64.4 ± 12 ng/mL
- concentration at 4 h ([1]; CSF, sc, Wistar rats, 10 mg/kg subcutaneously, 4 hours, read-out: CSF concentration): 72.1 ± 71.9 ng/mL
- concentration at 7 h ([1]; CSF, sc, Wistar rats, 10 mg/kg subcutaneously, 7 hours, read-out: CSF concentration): 3.9 ± 2.3 ng/mL
- concentration at 1 h ([1]; brain, sc, Wistar rats, 10 mg/kg subcutaneously, 1 hour, read-out: brain concentration): 201 ± 52 ng/g
- concentration at 4 h ([1]; brain, sc, Wistar rats, 10 mg/kg subcutaneously, 4 hours, read-out: brain concentration): 224 ± 231 ng/g
- concentration at 7 h ([1]; brain, sc, Wistar rats, 10 mg/kg subcutaneously, 7 hours, read-out: brain concentration): 28 ng/g
- concentration at 1 h ([1]; plasma, sc, Wistar rats, 10 mg/kg subcutaneously, 1 hour, read-out: total plasma concentration): 2240 ± 296 ng/mL
- concentration at 4 h ([1]; plasma, sc, Wistar rats, 10 mg/kg subcutaneously, 4 hours, read-out: total plasma concentration): 2220 ± 1780 ng/mL
- concentration at 7 h ([1]; plasma, sc, Wistar rats, 10 mg/kg subcutaneously, 7 hours, read-out: total plasma concentration): 287 ± 75 ng/mL
- P-glycoprotein substrate (P-glycoprotein): not a P-glycoprotein substrate
